The target of assay [1] is T1, aldose reductase enzyme obtained from calf lens (Bos taurus, UniProt P16116).
T1 construct: partially purified aldose reductase enzyme obtained from calf lens; from tissue; host or cells: calf lens
The experiment in a line: Aldose reductase inhibitory activity (partially purified calf lens enzyme). It is filed as biochemical. To be noted: 10^-4 M, * = average of 2 or 3 tests (Examples 2, 5, 6, 7). The procedure:
The Examples of spiro-polycyclicimidazolidinedione derivatives prepared above were tested for their ability to reduce or inhibit aldose reductase enzyme activity, following the procedure described in U.S. Pat. No. 3,821,383 and based on the procedure of Hayman et. al., Journal of Biological Chemistry, 240, 877 (1965). The substrate employed was partially purified aldose reductase enzyme obtained from calf lens. The drug was tested at a concentration of 10^-4 M and optionally at lower concentrations and the results are expressed as percent inhibition of enzyme activity.
*This number represents an average of 2 or 3 tests.

The test system of assay [2] is sorbitol accumulation in the sciatic nerve. The experiment in a line: Inhibition of sorbitol accumulation in the sciatic nerve of streptozotocinized (diabetic) rats. The class given is in vivo, rat. As to conditions: measured 27 h after induction, vs untreated. The procedure:
Some of the Examples of spiro-polycyclicimidazolidinedione derivatives prepared above were also tested for their ability to reduce or inhibit sorbitol accumulation in the sciatic nerve of streptozotocinized (i.e., diabetic) rats by the procedure essentially described in U.S. Pat. No. 3,821,383. In the present study, the amount of sorbitol accumulation in the sciatic nerves was measured 27 hours after induction of diabetes. The compounds were administered orally at the dose level indicated at 4, 8 and 24 hours following the administration of streptozotocin. The results obtained in this manner are presented in terms of percent inhibition (%) afforded by the test compound as compared to the case where no compound was administered (i.e., the untreated animal where sorbitol levels normally rise from approximately […] tissue to as high as 400 mM/g tissue in the 27-hour test period).

Where [3] appears, read: 1.5 mg/kg oral at 4, 8 and 24 h after streptozotocin.
Setting [4] is: 5.0 mg/kg oral at 4, 8 and 24 h after streptozotocin.

The text below walks through data of patent US4181728A, “Spiro-polycyclicimidazolidinedione derivatives” (Pfizer Inc., priority 1978, dated 1980).

Molecules are shown by their SMILES.

Regarding `O=C1NC(=O)C2(CCSc3ccc4ccccc4c32)N1` (centres unmarked) [Example 1, 2',3'-dihydro-spiro[imidazolidine-4,4'-[4'H]-naphtho[2,1-b]thiopyran]-2,5-dione], 100 µM produced 59% inhibition in assay [1]. `COc1cccc2c3c(ccc12)C1(CCO3)NC(=O)NC1=O` (centres unmarked) [Example 2, 2',3'-dihydro-7'-methoxy-spiro[imidazolidine-4,4'-[4'H]-naphtho[1,2-b]pyran]-2,5-dione]: the “% Inhibition of sorbitol accumulation” value in assay [2] (setting [3]) is “no effect”. In assay [1], this compound yielded an inhibition at 100 µM of 94%. As to `O=C1NC(=O)C2(CCCc3ccc4cc5ccccc5cc4c32)N1` (centres unmarked) [Example 3, 1',2',3',4'-tetrahydro-spiro[imidazolidine-4,1'-benz[a]anthracene]-2,5-dione], the inhibition at 100 µM in assay [1] was found to be 26%. As for `O=C1NC(=O)C2(CCSc3c2ccc2ccccc32)N1` (centres unmarked) [Example 4, 2',3'-dihydro-spiro[imidazolidine-4,4'-[4'H]-naphtho[1,2-b]thiopyran]-2,5-dione], in assay [2] (setting [3]), the “% Inhibition of sorbitol accumulation” value was found to be 32%. In addition, the inhibition at 100 µM in assay [1] is 100%. For `O=C1NC(=O)C2(CCOc3c2cc(Cl)c2ccccc32)N1` (centres unmarked) [Example 5, 5',6'-dihydro-6'-chloro-spiro[imidazolidine-4,4'-[4'H]-naphtho[1,2-b]pyran]-2,5-dione], the “% Inhibition of sorbitol accumulation” value in assay [2] (setting [4]) came to 58%. The inhibition at 100 µM in assay [1] amounted to 78%. In the case of `O=C1NC(=O)C2(CCOc3ccc4ccccc4c32)N1` (centres unmarked) [Example 6, 2',3'-dihydro-spiro[imidazolidine-4,4'-[4'H]-naphtho[2,1-b]pyran]-2,5-dione], the “% Inhibition of sorbitol accumulation” value in assay [2] (setting [3]) is “no effect”. The compound further showed an inhibition at 100 µM in assay [1] of 78%. Regarding `O=C1NC(=O)C2(CCCc3c2ccc2ccccc32)N1` (centres unmarked) [Example 7, 1',2',3',4'-tetrahydro-spiro[imidazolidine-4,1'-phenanthrene]-2,5-dione], the “% Inhibition of sorbitol accumulation” value in assay [2] (setting [3]) was “no effect”. Besides, at 100 µM the inhibition in assay [1] was 86%.

As to `O=C1NC(=O)C2(CCc3cccc4cccc2c34)N1` (centres unmarked) [Example 8, 2',3'-dihydro-spiro[imidazolidine-4,1'-phenalene]-2,5-dione], in assay [2] (setting [4]), the “% Inhibition of sorbitol accumulation” value amounted to 28%. This compound showed an inhibition at 100 µM in assay [1] of 71%. As for `O=C1NC(=O)C2(CCOc3c2ccc2ccccc32)N1` (centres unmarked) [Example 9, 2',3'-dihydro-spiro[imidazolidine-4,4'-[4'H]-naphtho[1,2-b]pyran]-2,5-dione], the “% Inhibition of sorbitol accumulation” value in assay [2] (setting [3]) turned out to be 30%. In assay [1], the inhibition at 100 µM is 72%. With `O=C1NC(=O)C2(CCCc3ccc4ccccc4c32)N1` (centres unmarked) [Example 10, 1',2',3',4'-tetrahydro-spiro[imidazolidine-4,4'-phenanthrene]-2,5-dione], the inhibition at 100 µM in assay [1] worked out at 60%.

One may read the inhibition as how much of the control response was suppressed. A low value points to a response near the control.
